Source: patent US20210047278A1, “E3 UBIQUITIN LIGASE AGONISTS, PHARMACEUTICAL COMPOSITIONS INCLUDING THE E3 UBIQUITIN LIGASE AGONISTS, RELATED METHODS OF USE” (FRED HUTCHINSON CANCER RESEARCH CENTER, priority 2018, published 2021)
Like-named read-outs stand apart in the source and are kept apart here.

What was measured:
Format in all cases: binding
[1] = target: T1, FBW7^ARG+pCycE (Homo sapiens, UniProt Q969H0, R505L); experiment: FBW7^ARG-cyclin E agonist ALPHAscreen (primary PRUN, confirmation CRUN1, dose-response DRUN); details: for EC50 / Emax: DRUN dose-response; for Emax: relative to WT-FBW7+pCycE, read-out: FBW7 ACT Averaged Max % Response
T1 construct: GST (TEV site and flexible linker) (N, cleaved yes); made in house; host or cells: SF9 insect cells (baculovirus)
T1 sequence (Q969H0 64-707 R505L): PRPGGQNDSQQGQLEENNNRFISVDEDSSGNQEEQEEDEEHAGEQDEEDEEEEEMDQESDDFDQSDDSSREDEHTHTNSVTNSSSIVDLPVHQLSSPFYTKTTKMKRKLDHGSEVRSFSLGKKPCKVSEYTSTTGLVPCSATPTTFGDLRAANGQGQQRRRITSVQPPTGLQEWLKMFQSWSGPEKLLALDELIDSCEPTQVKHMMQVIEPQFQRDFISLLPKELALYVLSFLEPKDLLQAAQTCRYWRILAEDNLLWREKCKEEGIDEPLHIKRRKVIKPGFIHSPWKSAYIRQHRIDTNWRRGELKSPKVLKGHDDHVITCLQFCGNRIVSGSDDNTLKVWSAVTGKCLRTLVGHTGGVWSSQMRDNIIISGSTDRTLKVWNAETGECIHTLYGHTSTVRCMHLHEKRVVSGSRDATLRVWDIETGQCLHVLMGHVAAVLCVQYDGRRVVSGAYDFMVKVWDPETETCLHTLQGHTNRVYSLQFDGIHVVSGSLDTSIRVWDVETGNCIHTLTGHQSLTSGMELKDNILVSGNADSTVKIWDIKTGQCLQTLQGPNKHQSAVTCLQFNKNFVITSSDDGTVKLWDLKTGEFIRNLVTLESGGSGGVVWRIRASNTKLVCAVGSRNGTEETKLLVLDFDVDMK
T1 sequence (P63208 2-163 partner): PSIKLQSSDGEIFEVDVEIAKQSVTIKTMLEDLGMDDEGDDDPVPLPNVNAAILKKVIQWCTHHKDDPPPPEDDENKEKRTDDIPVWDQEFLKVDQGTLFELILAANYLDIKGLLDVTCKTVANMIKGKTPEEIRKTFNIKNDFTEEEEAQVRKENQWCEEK
Summary of the method: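 ALPHAscreen agonist assay: His-tagged FBW7 R505L on Ni-chelate acceptor beads (25 nM FBW7, 25 nM biotinylated phospho-cyclin E peptide, 10 µg/ml beads), streptavidin donor beads, ALPHA signal read. Primary and confirmation runs at 26.1 μM; dose-response as 10-point 3-fold series to ~87 μM, in triplicate; activation relative to WT-FBW7+pCycE.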

[2] = target: T2, FBW7^ARG (RLFBW7) alone (Homo sapiens, UniProt Q969H0, R505L); experiment: Counterscreen 1 ALPHAscreen with FBW7^ARG alone (CSRUN1/DCSRUN1); details: dose-response counterscreen; for Emax: read-out: RLFBW7 ACT DCSRUN1 Averaged Max % Response
T2 construct: GST (TEV site and flexible linker) (N, cleaved yes); made in house; host or cells: SF9 insect cells (baculovirus)
T2 sequence (Q969H0 64-707 R505L): as the sequence (Q969H0 64-707 R505L) above
T2 sequence (P63208 2-163 partner): as the sequence (P63208 2-163 partner) above
Summary of the method: (§1)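 ALPHAscreen counterscreens, read on ENVISION, omitting either FBW7^ARG or the phosphorylated cyclin E peptide to flag general ALPHAscreen agonists. Compounds tested in triplicate as 10-point 3-fold dilutions up to approximately 87 μM. Activation expressed relative to WT-FBW7+pCycE, with 10% set as positive.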

[3] = system: pCycE alone; experiment: Counterscreen 2 ALPHAscreen with cyclin E phosphopeptide alone (CSRUN2/DCSRUN2); details: for CyCEP ACT DCSRUN2 Averaged Max % Response: activation relative to WT-FBW7+pCycE, averaged maximum; for EC50: dose-response, triplicate, 10 point 3-fold dilutional series, read-out: CyCEP ACT DCSRUN2 Final EC50
Summary of the method: as §1

[4] = raw curve fit, read-out: FBW7 ACT EC50 Curve Fit Raw, Molar
[5] = triplicate, 10 point 3-fold dilution, max approx. 87 μM, read-out: FBW7 ACT Final EC50, Molar
[6] = confirmation assay, triplicate, single concentration 26.1 μM, read-out: FBW7 ACT CRUN1 Avg % Response and Stdev
[7] = primary screen, 1536-well, 26.1 μM, FBW7^ARG + pCycE degron peptide, high control wt-FBW7+pCycE, read-out: FBW7 ACT PRUN % Response
[8] = raw curve fit, read-out: RLFBW7 ACT DCSRUN1 EC50 Curve Fit Raw
[9] = read-out: RLFBW7 ACT DCSRUN1 Final EC50

Row | SMILES | EC50 [1, 4] | Emax [1] | EC50 [1, 5] | activation at 26.1 µM [1, 6] | activation at 26.1 µM [1, 7] | EC50 [2, 8] | Emax [2] | EC50 [2, 9] | CyCEP ACT DCSRUN2 Averaged Max % Response [3] | EC50 [3]
1 | CC(NC(=O)c1cnc2ccccn12)c1ccc(F)cc1 (centres unmarked) [SR-01000378746-1] | 0.0903 µM | 6.66% | > 65.3 µM | 3.47 ± 0.47% | 2.82% | 0.011 µM | 1.12% | > 65.3 µM | 0.23% | > 65.3 µM
2 | O=C(c1ccco1)N1CCN(c2ncc(-c3ccccc3CO)n3ccnc23)CC1 [SR-01000381408-1] | 20.3 µM | 18.1% | > 65.3 µM | 1.92 ± 0.3% | 6.66% | 0.229 µM | 0.83% | > 65.3 µM | 0.18% | > 65.3 µM
3 | CC(C)[C@@H](CO)Nc1ccc2ncc(-c3cccc(Cl)c3)n2n1 [SR-01000383396-1] | 0.127 µM | 6.14% | > 65.3 µM | 2.27 ± 0.17% | 2.03% | – | 0.49% | > 65.3 µM | 0.27% | > 65.3 µM
4 | COc1ccc(OC)c(/C=C2/N=C(c3cccc([N+](=O)[O-])c3)OC2=O)c1 [SR-01000414795-1] | 0.0017 µM | 7.11% | > 59.3 µM | 2.95 ± 3.6% | 1.88% | – | -0.422% | > 59.3 µM | 0.02% | > 59.3 µM
5 | CC1=C(C(=O)OCCc2ccccc2)C(c2ccc(Cl)cc2Cl)C2=C(CC(C)(C)CC2=O)N1 (centres unmarked) [SR-01000419178-1] | 16.4 µM | 9.01% | > 45.8 µM | 4.54 ± 0.53% | 2.09% | 0.0785 µM | 3.8% | > 45.8 µM | 0.09% | > 45.8 µM
6 | CC1=C(C(=O)OC2CCCCC2)C(c2ccc(F)cc2)C2=C(CC(c3ccccc3)CC2=O)N1 (centres unmarked) [SR-01000420805-1] | 18.2 µM | 10% | > 50.8 µM | 6.77 ± 1.17% | 1.92% | 20.2 µM | 3.33% | > 50.8 µM | 0.22% | > 50.8 µM
7 | Cc1cc(OCC(=O)Nc2ccc3oc(-c4ccccc4Br)nc3c2)cc(C)c1Cl [SR-01000421466-1] | 0.0412 µM | 8.15% | > 43.2 µM | 3.2 ± 0.75% | 2.01% | – | 0.32% | > 43.2 µM | 0.02% | > 43.2 µM
8 | Cc1c(NC(=O)/C(=C\c2ccccc2)NC(=O)c2ccccc2)c(=O)n(-c2ccccc2)n1C [SR-01000422225-1] | 0.0401 µM | 6.91% | > 56.7 µM | 4.37 ± 0.72% | 1.87% | 0.619 µM | 0.11% | > 56.7 µM | 0.18% | > 56.7 µM
9 | COc1ccc(C2CC(=O)C3=C(C2)NC(C)=C(C(=O)OC(C)C)C3c2ccccc2OC(C)C)cc1 (centres unmarked) [SR-01000422384-1] | 14.3 µM | 9.7% | > 42.9 µM | 6.29 ± 0.67% | 2.42% | 14.5 µM | 1.86% | > 42.9 µM | 0.09% | > 42.9 µM
10 | COCCOC(=O)C1=C(C)NC2=C(C(=O)CC(c3ccccc3)C2)C1c1ccc(OCc2ccccc2)cc1 (centres unmarked) [SR-01000422392-1] | 30.4 µM | 8.49% | > 51.3 µM | 5.36 ± 0.53% | 3.41% | 0.689 µM | 3% | > 51.3 µM | −57.8E−3% | > 51.3 µM
11 | CCSCCOC(=O)C1=C(C)NC2=C(C(=O)CCC2)C1c1ccc(Br)cc1 (centres unmarked) [SR-01000422432-1] | 7.1 µM | 7.86% | > 54.4 µM | 5.2 ± 0.56% | 2.03% | 24.5 µM | 0.86% | > 54.4 µM | 0.21% | > 54.4 µM
